The values that follow come from ChEMBL document CHEMBL1129613, “Design, synthesis, and biological evaluation of ellipticine-estradiol conjugates” (J Med Chem, 1996).

Usually GI50 stands for the concentration at which growth is held to half of that of the control. Read a high GI50 as lower sensitivity of the cells. In general, pIC50 refers to −log10 of the IC50, conventionally taken in molar units. Lower therefore signals a high IC50.

In experiment [1] the test system is PC-3. In words: Cytotoxic effect on growth inhibition of prostate cancer PC-3 cells. Format: functional. Conditions: Homo sapiens.
The test system of experiment [2] is LOX IMVI. In words: Cytotoxic effect on growth inhibition of melanoma LOX IMVI cells. As to conditions: Homo sapiens. Format: functional.
Experiment [3] has as its system MCF7. In words: Cytotoxic effect of growth inhibition of breast cancer MCF-7/ADR-RES cells. Format: functional. As to conditions: Homo sapiens.
The subject of experiment [4] is U-251. In words: Cytotoxic effect on growth inhibition of CNS cancer U251 cells. The experiment is classed as functional. As to conditions: Homo sapiens.
Experiment [5] has as its system MCF7. In words: Cytotoxic effect on growth inhibition of breast cancer MCF-7 cells. Format: functional. As to conditions: Homo sapiens.
The target in experiment [6] is DNA topoisomerase 2-alpha (Homo sapiens, UniProt P11388). In words: Inhibitory activity against topoisomerase II determined in catenation inhibition assay.
Experiment [7] concerns NCI-H322M. In words: Cytotoxic effect on nonsmall cell lung cancer NCI-H322M cells. Conditions: Homo sapiens. Format: functional.
The subject of experiment [8] is Hs-578T. In words: Cytotoxic effect on growth inhibition of breast cancer HS 578T cells. The experiment is classed as functional. Conditions: Homo sapiens.
In experiment [9] the test system is IGROV-1. In words: Cytotoxic effect on growth inhibition of ovarian cancer IGROVI cells. The experiment is classed as functional. Conditions: Homo sapiens.
The target in experiment [10] is Estrogen receptor (Rattus norvegicus) (UniProt P06211+Q62986). In words: Relative binding affinity for estrogen receptor. Format: protein assay.
Experiment [11] relates to MDA-MB-231. In words: Cytotoxic effect on growth inhibition of breast cancer MDA-MB-231/ATCC cells. Format: functional. Conditions: Homo sapiens.
Experiment [12] relates to SN12C. In words: Cytotoxic effect on growth inhibition of renal cancer SN12C cells. Format: functional. Conditions: Homo sapiens.
In experiment [13] the test system is HCT-116. In words: Cytotoxic effect on growth inhibition of colon cancer HCT116 cells. The experiment is classed as functional. As to conditions: Homo sapiens.
Experiment [14] concerns MOLT-4. In words: Cytotoxic effect on leukemia MOLT-4 cells. Format: functional. As to conditions: Homo sapiens.
The subject of experiment [15] is NCI-H322M. In words: Cytotoxic effect on growth inhibition of nonsmall cell lung cancer NCI-H322M cells. Format: functional. Conditions: Homo sapiens.
Experiment [16] concerns IGROV-1. In words: Cytotoxic effect on ovarian cancer IGROVI cells. The experiment is classed as functional. Conditions: Homo sapiens.
Experiment [17] concerns MOLT-4. In words: Cytotoxic effect on growth inhibition of leukemia MOLT-4 cells. The experiment is classed as functional. As to conditions: Homo sapiens.

pIC50: −log10 of the molar value.

Sequence of DNA topoisomerase 2-alpha (P11388 whole entry): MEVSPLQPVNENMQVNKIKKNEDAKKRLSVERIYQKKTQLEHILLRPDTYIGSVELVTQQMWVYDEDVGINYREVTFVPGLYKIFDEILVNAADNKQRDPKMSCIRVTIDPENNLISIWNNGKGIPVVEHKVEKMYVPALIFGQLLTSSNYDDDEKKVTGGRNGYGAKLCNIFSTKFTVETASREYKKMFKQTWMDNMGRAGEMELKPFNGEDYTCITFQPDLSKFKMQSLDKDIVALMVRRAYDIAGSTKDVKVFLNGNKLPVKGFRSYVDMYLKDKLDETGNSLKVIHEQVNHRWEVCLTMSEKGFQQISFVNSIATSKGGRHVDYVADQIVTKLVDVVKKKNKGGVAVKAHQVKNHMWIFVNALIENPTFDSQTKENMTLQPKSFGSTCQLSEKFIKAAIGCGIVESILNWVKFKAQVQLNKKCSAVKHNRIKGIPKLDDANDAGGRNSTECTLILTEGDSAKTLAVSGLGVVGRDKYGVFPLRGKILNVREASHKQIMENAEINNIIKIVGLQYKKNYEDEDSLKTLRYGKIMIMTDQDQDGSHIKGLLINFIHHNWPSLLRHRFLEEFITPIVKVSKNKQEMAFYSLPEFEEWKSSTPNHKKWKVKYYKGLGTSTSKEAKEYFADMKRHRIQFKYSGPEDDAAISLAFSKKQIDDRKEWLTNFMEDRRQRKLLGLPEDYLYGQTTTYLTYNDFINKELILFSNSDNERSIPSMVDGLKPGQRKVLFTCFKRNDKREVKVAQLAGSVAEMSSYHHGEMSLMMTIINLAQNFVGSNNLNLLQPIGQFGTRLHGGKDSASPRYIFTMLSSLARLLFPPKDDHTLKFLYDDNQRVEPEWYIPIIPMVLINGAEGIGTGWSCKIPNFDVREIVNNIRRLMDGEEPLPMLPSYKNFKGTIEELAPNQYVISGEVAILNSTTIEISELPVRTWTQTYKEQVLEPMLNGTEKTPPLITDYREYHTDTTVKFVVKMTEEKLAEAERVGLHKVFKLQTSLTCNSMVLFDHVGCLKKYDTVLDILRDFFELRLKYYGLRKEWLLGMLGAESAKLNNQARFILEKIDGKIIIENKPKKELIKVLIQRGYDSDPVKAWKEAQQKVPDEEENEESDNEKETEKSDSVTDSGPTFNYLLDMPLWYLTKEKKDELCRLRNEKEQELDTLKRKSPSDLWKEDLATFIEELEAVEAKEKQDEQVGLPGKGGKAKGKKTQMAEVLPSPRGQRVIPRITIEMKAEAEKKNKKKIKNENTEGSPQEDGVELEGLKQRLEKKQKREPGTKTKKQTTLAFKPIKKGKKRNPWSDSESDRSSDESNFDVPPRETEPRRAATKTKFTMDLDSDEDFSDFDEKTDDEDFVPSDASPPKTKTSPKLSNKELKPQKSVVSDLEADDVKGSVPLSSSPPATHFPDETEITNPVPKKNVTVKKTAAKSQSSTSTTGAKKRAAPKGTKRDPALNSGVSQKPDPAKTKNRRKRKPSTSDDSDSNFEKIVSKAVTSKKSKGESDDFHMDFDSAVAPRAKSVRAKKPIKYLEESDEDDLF

`Cc1c2c(c(C)c3c1[nH]c1ccccc13)CN(C(=O)NCCCCCCNC(=O)C[C@]1(O)CC[C@H]3[C@@H]4CCc5cc(O)ccc5[C@H]4CC[C@@]31C)C=C2`: the 50% growth inhibitory concentration (GI50) in experiment [1] was 3.51 µM; in experiment [2], 7.97 µM; in experiment [3] it was 9.96 µM; in [4], 7.64 µM; in experiment [5], 3.39 µM; in experiment [7], 2.68 µM. Also, the GI50 in [8] came out at 16.6 µM; in [9], 8.53 µM; in experiment [11], 19.7 µM; in [12], 9.56 µM; in experiment [13], 3.55 µM; in experiment [14], 2.9 µM. In addition, in [6], the negative-log IC50 (pIC50) is 4.62. This compound had a relative binding affinity (RBA) in [10] of 0.132.

Turning to `Cc1c2cnccc2c(C)c2c1c1ccccc1n2CC(=O)NCCCCCCNC(=O)C[C@]1(O)CC[C@H]2[C@@H]3CCc4cc(O)ccc4[C@H]3CC[C@@]21C`, the GI50 in [1] is 57.1 µM; in experiment [2], 50.9 µM; in [3], greater than 100 µM; in [15] it was 71.4 µM; in experiment [16] it was greater than 100 µM; in experiment [4] it was 72.4 µM. In addition, the GI50 in [5] is greater than 100 µM; in [8] it was 46.8 µM; in experiment [11] it was greater than 100 µM; in [12] it was greater than 100 µM; in experiment [13] it was 39.9 µM; in [14], 46.3 µM. In experiment [6], this compound gave a pIC50 of less than 3.70.

`Cc1c2ccncc2c(C)c2c1[nH]c1ccccc12` [ELLIPTECINE]: the concentration for 50% growth inhibition (GI50) in [2] turned out to be 0.56 µM; in experiment [3], 0.74 µM; in [15] it was 0.31 µM; in experiment [4] it was 0.93 µM; in experiment [5] it was 0.71 µM; in experiment [9], 0.86 µM. Moreover, the concentration for 50% growth inhibition (GI50) was 0.73 µM in experiment [12], 0.29 µM in [13] and 0.38 µM in experiment [14].

In experiment [10], `C[C@]12CC[C@@H]3c4ccc(O)cc4CC[C@H]3[C@@H]1CC[C@@]2(O)CC(=O)O` registered a relative binding affinity (RBA) of 0.039.

For `Cc1c2ccncc2c(C)c2c1[nH]c1ccc(C(=O)NCCCCCCNC(=O)C[C@]3(O)CC[C@H]4[C@@H]5CCc6cc(O)ccc6[C@H]5CC[C@@]43C)cc12`, the concentration for 50% growth inhibition (GI50) was 74 µM in experiment [1]; 51.4 µM in [2]; 38.3 µM in experiment [17]; greater than 100 µM in experiment [3]; 28 µM in [15]; 55.9 µM in experiment [4]. In addition, the GI50 was greater than 100 µM in experiment [8]; greater than 100 µM in [9]; 34.7 µM in experiment [11]; greater than 100 µM in [12]; 31.2 µM in experiment [13]. In addition, the pIC50 in experiment [6] is less than 3.70. The compound further had a relative binding affinity (RBA) in experiment [10] of 0.303.

As for `CCOC(=O)C[C@]1(O)CC[C@H]2[C@@H]3CCc4cc(O)ccc4[C@H]3CC[C@@]21C`, the relative binding affinity (RBA) in experiment [10] was 3.66.

`CC(C)(C)OC(=O)NCCCCCCNC(=O)C[C@]1(O)CC[C@H]2[C@@H]3CCc4cc(O)ccc4[C@H]3CC[C@@]21C` gave a relative binding affinity (RBA) in [10] of 0.056.

Consider `C[C@]12CC[C@@H]3c4ccc(O)cc4CC[C@H]3[C@@H]1CC[C@@]2(O)CC(=O)NCCCCCCN`, for which the relative binding affinity (RBA) in experiment [10] came out at 0.041.
